{"source": "patent US20070140979A1", "about": "“Method for accelerating the rate of mucociliary clearance” (BAYER AKTIENGESELLSCHAFT, priority 1998, published 2007)", "molecules": {"B1": {"name": "Bikunin: Bikunin (SEQ ID NO: 52), two Kunitz domain human homologue of bovine aprotinin, used in airway and HBE studies (protein, listed as Homo sapiens)", "chain": "ADRERSIHDFCLVSKVVGRCRASMPRWWYNVTDGSCQLFVYGGCDGNSNNYLTKEECLKKCATVTENATGDLATSRNAADSSVPSAPRRQDSEDHSSDMFNYEEYCTANAVTGPCRASFPRWYFDVERNSCNNFIYGGCRGNKNSYRSEEACMLRCFRQQENPPLPLGSK"}, "B2": {"name": "Recombinant Bikunin: fragment of placental bikunin containing both Kunitz domains (1-170), expressed in baculovirus/Sf9 cells (protein)", "chain": "ADRERSIHDFCLVSKVVGRCRASMPRWWYNVTDGSCQLFVYGGCDGNSNNYLTKEECLKKCATVTENATGDLATSRNAADSSVPSAPRRQDSEDHSSDMFNYEEYCTANAVTGPCRASFPRWYFDVERNSCNNFIYGGCRGNKNSYRSEEACMLRCFRQQENPPLPLGSK"}}, "key": {"[1]": {"experiment": "Isoelectric point by isoelectric focusing", "assay_type": "physicochemical", "settings": "Ampholine PAGplate pH 3.5 to 9.5, refolded purified protein", "description": "After staining, the migration distance from the cathodic edge of the gel to the different protein bands was measured. The pI of each unknown was determined by using a standard curve generated by a plot of the migration distance of standards versus the corresponding pI's. […] (Tenstad et al., 1994, Acta Physiol. Scand. 152:33-50)."}, "[2]": {"target": "T1, human plasma kallikrein (Homo sapiens, UniProt P03952)", "T1 construct": "purchased Sigma (St. Louis, Mo.)", "T1 sequence (P03952 391-638 limits assumed)": "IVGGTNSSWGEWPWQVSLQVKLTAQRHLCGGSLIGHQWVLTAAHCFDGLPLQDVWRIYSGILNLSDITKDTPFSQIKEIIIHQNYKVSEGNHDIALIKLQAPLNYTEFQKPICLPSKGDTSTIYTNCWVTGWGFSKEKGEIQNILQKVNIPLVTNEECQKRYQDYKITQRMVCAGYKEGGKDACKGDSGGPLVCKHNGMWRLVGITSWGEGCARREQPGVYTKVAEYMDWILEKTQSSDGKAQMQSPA", "T1 sequence (P03952 20-390 partner limits assumed)": "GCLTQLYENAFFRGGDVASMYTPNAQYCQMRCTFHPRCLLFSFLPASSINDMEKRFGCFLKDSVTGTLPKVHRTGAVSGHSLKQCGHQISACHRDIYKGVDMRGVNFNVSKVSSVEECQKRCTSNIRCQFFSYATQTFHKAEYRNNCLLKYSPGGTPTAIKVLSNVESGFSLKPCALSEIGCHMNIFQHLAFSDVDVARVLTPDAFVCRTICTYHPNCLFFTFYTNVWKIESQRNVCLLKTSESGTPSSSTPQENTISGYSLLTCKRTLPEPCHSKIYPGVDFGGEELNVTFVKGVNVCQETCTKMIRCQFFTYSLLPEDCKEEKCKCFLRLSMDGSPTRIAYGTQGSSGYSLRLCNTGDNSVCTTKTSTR", "experiment": "Inhibition of human plasma kallikrein, Ki", "assay_type": "biochemical", "settings": "for Potency as inhibitor of plasma kallikrein compared with aprotinin (Trasylol), in words: in vitro", "description": "Proteases. Bovine trypsin, human plasmin, and bovine pancreatic kallikrein quantitation was carried out by active site titration using p-nitrophenyl p′-guanidinobenzoate HCl as previousl) described (Chase, T., and Shaw, E., (1970) Methods Enzmol. 19, 20-27). […] Human tissue kallikrein (Bayer, Germany) quantification was carried out by active site titration using p′nitrophenyl p′-guanidinobenzoate HCl as previously described (Chase, T., and Shaw, E., (1970) Methods Enzmol. 19, 20-27).\nAfter 5 min. at 37° C., 15 μl of 2 mM GPK-AMC was added and the change in fluorescence (as above) was monitored. […] After 5 min. incubation at 37° C., 25 μl of 20 mM GPK-AMC was added and the change in fluorescence monitored. […] After 5 min. at 37° C. 15 μl of 20 mM PFR-AMC was added and the change in fluorescence monitored."}, "[3]": {"system": "diseased patients", "settings": "inhalation; Robinson et al 1997, App et al 1990; cited from earlier work"}, "[4]": {"system": "guinea pig trachea", "experiment": "Tracheal mucus velocity (TMV) in the guinea-pig", "assay_type": "in vivo", "settings": "10 mM x 20 mins aerosol, 15 minutes after aerosol", "description": "[…] […] The procedure used in this Example is described in Newton et al. in “Cila, Mucus and Mucociliary Interactions,” Ed., Baum, G. L. et al., Marcel Dekker, New York, 1998; Newton et al., Ped. Pulm. S17, Abs. 364, 998).\nA Bikunin formulation (50 ug/mL Bikunin (SEQ ID NO: 52) was prepared in HBBS containing 137 mM NaCl, 3 mM KC1, 3 mM KH2PO4, 8 mM Na2HPO4, 0.2% Tween-80, pH 7.1). The formulation was sterile filtered and endotoxin tested prior to use in this example. HBSS was used as a control solution. Hypnorm® (Fentanyl citrate 0.315 mg/mL and Fluanisone 10 mg/mL) was obtained from Janssen Animal Health and Hypnovel® (Midazolam 5 mg/mL) was obtained from Roche. Male Dunkin-Hartley guinea pigs (550-750 g) were supplied by David Hall, UK. Thermistor probes were obtained from Kane-May Ltd, UK. […]\nTMV was monitored using a lead collimated miniature Beta particle detector probe arranged to detect the radioactivity emitted from an injected aliquot of ^32P-labelled Saccharomyces cerevisiae as it was transported on the tracheal mucociliary layer of an anaesthetized guinea pig (Newton and Hall 1998) FIG. 16(a) illustrates the arrangement of the syringe and beta probe. FIG. 16(b) illustrates the counts detected by the probe as the ^32P-labelled S.cerevisiae is transported along the tracheal mucociliary layer. […]\n[…] TMV was monitored immediately and every 15 minutes for 30 minutes. […]"}, "[5]": {"system": "human bronchial epithelial cell (HBE)", "experiment": "Short circuit current (Isc) of cultured human bronchial epithelial cells in Ussing chambers", "assay_type": "cell-based", "settings": "for Sodium current: 70 nM", "protocol": "Tertiary HBE cell monolayers grown to confluence were mounted in modified Ussing chambers, immersed in Krebs buffer (KBR) solution and bubbled with 95% 02/5% C02 warmed to 37 C.\nCells were left to equilibrate for 20 minutes before calibrating for background noise and fluid resistance. Transepithelial potential difference was then clamped to 0 mV using a WPI EVC 4000 voltage clamp. Ag/AgCl electrodes were used to monitor Isc. […] Once a response to amiloride was seen, it was washed out with KBR solution. […] 90 minutes following agent treatment, amiloride (10 uM) was added. Once the current was stable forskolin (10 uM in PBS) and then bumetanide (100 uM in PBS) was added.\nCells were left to equilibrate for 20 minutes before calibrating for background noise and fluid resistance. Transepithelial potential difference was then clamped to 0 mV using a WPI EVC 4000 voltage clamp. Ag/AgCl electrodes were used to monitor Isc. […] Once a response to amiloride was seen, it was washed out with KBR solution. […] 90 minutes following agent treatment, amiloride (10 uM) was added."}, "[6]": {"system": "allergic sheep", "settings": "cited from earlier work"}, "[7]": {"system": "Xenopus kidney epithelial cells (A6 cells)", "settings": "exposure of the apical membrane, Vallet et al 1997, Chraibi et al 1998, cited from earlier work"}, "[8]": {"system": "human bronchial epithelial cell (HBE)", "settings": "1.5 μg.ml−1 (70 nM), normal HBE cells; McAulay et al 1998; cited from earlier work"}}, "note": "Read-outs that look alike come from different tables or passages of the source."}
{"molecule": "CC[C@H](C)[C@@H]1NC(=O)[C@H](Cc2ccccc2)NC(=O)[C@H](CC(N)=O)NC(=O)[C@H](CC(N)=O)NC(=O)[C@@H]2CSSC[C@@H]3NC(=O)[C@H](C)NC(=O)[C@H](CCC(=O)O)NC(=O)[C@H](CCC(=O)O)NC(=O)[C@H](CO)NC(=O)[C@H](CCCNC(=N)N)NC(=O)[C@H](Cc4ccc(O)cc4)NC(=O)[C@H](CO)NC(=O)[C@H](CC(N)=O)NC(=O)[C@H](CCCCN)NC(=O)[C@H](CC(N)=O)NC(=O)CNC(=O)[C@H](CCCNC(=N)N)NC(=O)[C@H](CSSC[C@H](NC(=O)[C@@H]4CCCN4C(=O)CNC(=O)[C@H]([C@@H](C)O)NC(=O)[C@H](C(C)C)NC(=O)[C@H](C)NC(=O)[C@H](CC(N)=O)NC(=O)[C@H](C)NC(=O)[C@H]([C@@H](C)O)NC(=O)[C@@H](NC(=O)[C@H](Cc4ccc(O)cc4)NC(=O)[C@H](CCC(=O)O)NC(=O)[C@H](CCC(=O)O)NC(=O)[C@@H](N)Cc4ccc(O)cc4)CSSC[C@@H](C(=O)N[C@@H](Cc4ccccc4)C(=O)N[C@@H](CCCNC(=N)N)C(=O)N[C@@H](CCC(N)=O)C(=O)O)NC(=O)[C@H](CCCNC(=N)N)NC(=O)[C@H](CC(C)C)NC(=O)[C@H](CCSC)NC3=O)C(=O)N[C@@H](CCCNC(=N)N)C(=O)N[C@@H](C)C(=O)N[C@@H](CO)C(=O)N[C@@H](Cc3ccccc3)C(=O)N3CCC[C@H]3C(=O)N[C@@H](CCCNC(=N)N)C(=O)N[C@@H](Cc3c[nH]c4ccccc34)C(=O)N[C@@H](Cc3ccc(O)cc3)C(=O)N[C@@H](Cc3ccccc3)C(=O)N[C@@H](CC(=O)O)C(=O)N[C@@H](C(C)C)C(=O)N[C@@H](CCC(=O)O)C(=O)N[C@@H](CCCNC(=N)N)C(=O)N[C@@H](CC(N)=O)C(=O)N[C@@H](CO)C(=O)N2)NC(=O)CNC(=O)CNC(=O)[C@H](Cc2ccc(O)cc2)NC1=O", "note": "[Bikunin (102-159)]", "values": [{"measurement": "pI", "setting": "[1]", "value": 8.3}, {"measurement": "Ki", "setting": "[2]; Kallikrein ([…] nM), Table 4B", "value": 7, "unit": "nM"}, {"measurement": "Potency as inhibitor of plasma kallikrein compared with aprotinin (Trasylol), in words", "setting": "[2]", "value": "significantly more potent"}]}
{"molecule": "N=C(N)NC(=O)c1nc(Cl)c(N)nc1N", "note": "[amiloride]", "values": [{"measurement": "MCC in diseased patients", "setting": "[3]", "value": "significantly increase"}, {"measurement": "TMV after aerosol", "setting": "[4]", "value": "statistically significant increase"}]}
{"molecule": "α1-PI: serpin-family serine protease inhibitor alpha(1)-protease inhibitor", "values": [{"measurement": "Effect on Na+ Isc", "setting": "[5]; 50 μg.ml−1, normal HBE cells, further study", "value": "without a significant effect"}, {"measurement": "Antigen-induced reduction in TMV", "setting": "[6]; 10 mg, 30 min before or 1 h after antigen challenge, 6 h after challenge", "value": "attenuated"}, {"measurement": "Baseline TMV", "setting": "[6]; administered on its own (no antigen challenge), over a 6 h period", "value": "no effect"}, {"measurement": "Antigen-induced fall in TMV", "setting": "[6]; given 6 h after antigen challenge, at 24 h after challenge", "value": "significant reversal"}]}
{"molecule": "Aprotinin", "values": [{"measurement": "Sodium short circuit current", "setting": "[5]; 5 ug/mL, FIG. 20", "value": "decrease"}, {"measurement": "Transepithelial Na+ transport", "setting": "[7]", "value": "reduce"}, {"measurement": "Transepithelial Na+ transport", "setting": "[7]; listed as aprotinin", "value": "reduced"}]}
{"molecule": "Des Pro2-Ser10-Arg15-Asp24-Thr26-Glu31-Asn41-Glu53-Aprotinin [Aprotinin double mutein]", "values": [{"measurement": "Sodium short circuit current", "setting": "[5]; 0.5 to 5 ug/mL, 90 minute period", "value": "dose dependently inhibited"}, {"measurement": "Sodium short circuit current", "setting": "[5]; 0.5 to 5 ug/mL, 90 minute period, listed as aprotinin double mutein", "value": "decrease"}]}
{"molecule": "B1", "values": [{"measurement": "Sodium current", "setting": "[5]; 90 minute period", "value": "decreases"}, {"measurement": "Sodium current", "setting": "[5]; 90 minute period, listed as Bukinin", "value": "inhibited"}, {"measurement": "Inhibition of Na+ Isc", "setting": "[5]; 5 μg.ml−1, normal HBE cells, further study", "value": 84, "unit": "%"}, {"measurement": "Sodium short circuit current", "setting": "[5]; 5 ug/mL, FIG. 20", "value": "decrease"}, {"measurement": "Inhibition of Na+ Isc", "setting": "[8]", "value": 54, "unit": "%"}]}
{"molecule": "B2", "values": [{"measurement": "Potency as inhibitor of plasma kallikrein compared with aprotinin (Trasylol), in words", "setting": "[2]", "value": "more potent"}, {"measurement": "Potency as inhibitor of plasma kallikrein compared with aprotinin (Trasylol), in words", "setting": "[2]; listed as bikunin(1-170)", "value": "significantly more potent"}]}
